Laboratory results from the CheMixHub viscosity set.
“And” between values parts separate entries of the source, which are not always exact repeats. Identical values can stand only once. ± gives the uncertainty stated by the source.

Experiment: xn = mol fraction of the nth substance listed

NCCCO + CCCC[N+](CCCC)(CCCC)CCCC.[Br-]
viscosity (293.15 K, 101.33 kPa, x1 = 0.8): 113.9 ± 7.5 mPa·s
viscosity (293.15 K, 101.33 kPa, x1 = 0.9): 79.29 ± 7.6 mPa·s and 65.55 ± 5.9 mPa·s
viscosity (298.15 K, 101.33 kPa, x1 = 0.8): 84.69 ± 5.9 mPa·s
viscosity (298.15 K, 101.33 kPa, x1 = 0.9): 60.03 ± 5.6 mPa·s and 50.16 ± 4 mPa·s
viscosity (303.15 K, 101.33 kPa, x1 = 0.8): 63.71 ± 4.5 mPa·s
viscosity (303.15 K, 101.33 kPa, x1 = 0.9): 46.01 ± 4.3 mPa·s and 38.6 ± 3.3 mPa·s
viscosity (308.15 K, 101.33 kPa, x1 = 0.8): 49.65 ± 3.6 mPa·s
viscosity (308.15 K, 101.33 kPa, x1 = 0.9): 35.84 ± 3.6 mPa·s and 29.98 ± 2.8 mPa·s
viscosity (313.15 K, 101.33 kPa, x1 = 0.8): 38.79 ± 3.1 mPa·s
viscosity (313.15 K, 101.33 kPa, x1 = 0.9): 28.31 ± 3 mPa·s and 23.97 ± 2.5 mPa·s
viscosity (318.15 K, 101.33 kPa, x1 = 0.8): 30.76 ± 2.7 mPa·s
viscosity (318.15 K, 101.33 kPa, x1 = 0.9): 22.73 ± 2.6 mPa·s and 19.27 ± 2.4 mPa·s
viscosity (323.15 K, 101.33 kPa, x1 = 0.8): 24.94 ± 2.4 mPa·s
viscosity (323.15 K, 101.33 kPa, x1 = 0.9): 18.62 ± 2.4 mPa·s and 15.76 ± 2.3 mPa·s

O=C[C@H](O)[C@H](O)[C@H](O)CO + O
viscosity (298.15 K, 101 kPa, x1 = 0.003513): 0.95 ± 0.009 mPa·s
viscosity (298.15 K, 101 kPa, x1 = 0.01898): 1.292 ± 0.014 mPa·s

NCCCO + C1COCCO1
viscosity (298.15 K, 101 kPa, x1 = 0.1197): 1.419 ± 0.026 mPa·s
viscosity (298.15 K, 101 kPa, x1 = 0.2269): 1.847 ± 0.033 mPa·s
viscosity (298.15 K, 101 kPa, x1 = 0.3332): 2.619 ± 0.047 mPa·s
viscosity (298.15 K, 101 kPa, x1 = 0.4339): 3.465 ± 0.062 mPa·s
viscosity (298.15 K, 101 kPa, x1 = 0.5403): 4.883 ± 0.088 mPa·s
viscosity (298.15 K, 101 kPa, x1 = 0.6385): 6.97 ± 0.12 mPa·s
viscosity (298.15 K, 101 kPa, x1 = 0.7328): 10.21 ± 0.18 mPa·s
viscosity (298.15 K, 101 kPa, x1 = 0.8244): 15 ± 0.27 mPa·s
viscosity (298.15 K, 101 kPa, x1 = 0.9072): 20.98 ± 0.37 mPa·s
viscosity (303.15 K, 101 kPa, x1 = 0.1197): 1.294 ± 0.023 mPa·s
viscosity (303.15 K, 101 kPa, x1 = 0.2269): 1.654 ± 0.03 mPa·s
viscosity (303.15 K, 101 kPa, x1 = 0.3332): 2.311 ± 0.042 mPa·s
viscosity (303.15 K, 101 kPa, x1 = 0.4339): 3.05 ± 0.055 mPa·s
viscosity (303.15 K, 101 kPa, x1 = 0.5403): 4.251 ± 0.076 mPa·s
viscosity (303.15 K, 101 kPa, x1 = 0.6385): 5.966 ± 0.11 mPa·s
viscosity (303.15 K, 101 kPa, x1 = 0.7328): 8.411 ± 0.15 mPa·s
viscosity (303.15 K, 101 kPa, x1 = 0.8244): 12.14 ± 0.22 mPa·s
viscosity (303.15 K, 101 kPa, x1 = 0.9072): 16.7 ± 0.3 mPa·s
viscosity (308.15 K, 101 kPa, x1 = 0.1197): 1.188 ± 0.022 mPa·s
viscosity (308.15 K, 101 kPa, x1 = 0.2269): 1.488 ± 0.027 mPa·s
viscosity (308.15 K, 101 kPa, x1 = 0.3332): 2.037 ± 0.037 mPa·s
viscosity (308.15 K, 101 kPa, x1 = 0.4339): 2.674 ± 0.048 mPa·s
viscosity (308.15 K, 101 kPa, x1 = 0.5403): 3.624 ± 0.065 mPa·s
viscosity (308.15 K, 101 kPa, x1 = 0.6385): 4.916 ± 0.088 mPa·s
viscosity (308.15 K, 101 kPa, x1 = 0.7328): 6.868 ± 0.12 mPa·s
viscosity (308.15 K, 101 kPa, x1 = 0.8244): 9.516 ± 0.17 mPa·s
viscosity (308.15 K, 101 kPa, x1 = 0.9072): 13.47 ± 0.24 mPa·s

Cc1cccc(C)c1 + CCCCCCO
viscosity (303.15 K, 101 kPa, x2 = 0.2002): 0.683 ± 0.007 mPa·s
viscosity (313.15 K, 101 kPa, x2 = 0.5): 0.965 ± 0.01 mPa·s
viscosity (323.15 K, 101 kPa, x2 = 0.4001): 0.693 ± 0.007 mPa·s

O=S1(=O)CCCC1 + Cc1ccc(C)cc1
viscosity (303.15 K, 101 kPa, x2 = 0.1118): 6.156 ± 0.15 mPa·s and 6.156 ± 0.14 mPa·s
viscosity (303.15 K, 101 kPa, x2 = 0.2206): 4.093 ± 0.088 mPa·s and 4.093 ± 0.084 mPa·s
viscosity (303.15 K, 101 kPa, x2 = 0.3266): 2.887 ± 0.056 mPa·s and 2.887 ± 0.053 mPa·s
viscosity (303.15 K, 101 kPa, x2 = 0.4301): 2.143 ± 0.038 mPa·s and 2.143 ± 0.035 mPa·s
viscosity (303.15 K, 101 kPa, x2 = 0.531): 1.608 ± 0.026 mPa·s and 1.608 ± 0.023 mPa·s
viscosity (303.15 K, 101 kPa, x2 = 0.6293): 1.253 ± 0.018 mPa·s and 1.253 ± 0.016 mPa·s
viscosity (303.15 K, 101 kPa, x2 = 0.7252): 0.989 ± 0.013 mPa·s and 0.9893 ± 0.012 mPa·s
viscosity (303.15 K, 101 kPa, x2 = 0.8191): 0.812 ± 0.01 mPa·s and 0.8122 ± 0.0088 mPa·s
viscosity (303.15 K, 101 kPa, x2 = 0.9106): 0.673 ± 0.008 mPa·s and 0.6727 ± 0.0072 mPa·s
viscosity (303.15 K, 101.3 kPa, x2 = 0.1118): 6.156 ± 0.13 mPa·s
viscosity (303.15 K, 101.3 kPa, x2 = 0.2206): 4.093 ± 0.091 mPa·s
viscosity (303.15 K, 101.3 kPa, x2 = 0.3266): 2.887 ± 0.066 mPa·s
viscosity (303.15 K, 101.3 kPa, x2 = 0.4301): 2.143 ± 0.049 mPa·s
viscosity (303.15 K, 101.3 kPa, x2 = 0.531): 1.608 ± 0.038 mPa·s
viscosity (303.15 K, 101.3 kPa, x2 = 0.6293): 1.253 ± 0.03 mPa·s
viscosity (303.15 K, 101.3 kPa, x2 = 0.7252): 0.9893 ± 0.025 mPa·s
viscosity (303.15 K, 101.3 kPa, x2 = 0.8191): 0.8122 ± 0.021 mPa·s
viscosity (303.15 K, 101.3 kPa, x2 = 0.9106): 0.6727 ± 0.018 mPa·s
viscosity (313.15 K, 101 kPa, x2 = 0.1118): 4.883 ± 0.11 mPa·s
viscosity (313.15 K, 101 kPa, x2 = 0.2206): 3.341 ± 0.069 mPa·s
viscosity (313.15 K, 101 kPa, x2 = 0.3266): 2.384 ± 0.044 mPa·s
viscosity (313.15 K, 101 kPa, x2 = 0.4301): 1.791 ± 0.03 mPa·s
viscosity (313.15 K, 101 kPa, x2 = 0.531): 1.351 ± 0.02 mPa·s
viscosity (313.15 K, 101 kPa, x2 = 0.6293): 1.066 ± 0.014 mPa·s
viscosity (313.15 K, 101 kPa, x2 = 0.7252): 0.8516 ± 0.01 mPa·s
viscosity (313.15 K, 101 kPa, x2 = 0.8191): 0.7111 ± 0.0081 mPa·s
viscosity (313.15 K, 101 kPa, x2 = 0.9106): 0.5929 ± 0.0067 mPa·s
viscosity (323.15 K, 101 kPa, x2 = 0.1118): 3.964 ± 0.094 mPa·s and 3.964 ± 0.091 mPa·s
viscosity (323.15 K, 101 kPa, x2 = 0.2206): 2.74 ± 0.06 mPa·s and 2.74 ± 0.057 mPa·s
viscosity (323.15 K, 101 kPa, x2 = 0.3266): 2 ± 0.04 mPa·s and 2 ± 0.037 mPa·s
viscosity (323.15 K, 101 kPa, x2 = 0.4301): 1.526 ± 0.028 mPa·s and 1.526 ± 0.025 mPa·s
viscosity (323.15 K, 101 kPa, x2 = 0.531): 1.166 ± 0.019 mPa·s and 1.166 ± 0.017 mPa·s
viscosity (323.15 K, 101 kPa, x2 = 0.6293): 0.925 ± 0.014 mPa·s and 0.9254 ± 0.013 mPa·s
viscosity (323.15 K, 101 kPa, x2 = 0.7252): 0.747 ± 0.011 mPa·s and 0.7473 ± 0.0094 mPa·s
viscosity (323.15 K, 101 kPa, x2 = 0.8191): 0.627 ± 0.009 mPa·s and 0.6269 ± 0.0075 mPa·s
viscosity (323.15 K, 101 kPa, x2 = 0.9106): 0.53 ± 0.007 mPa·s and 0.53 ± 0.0064 mPa·s
viscosity (323.15 K, 101.3 kPa, x2 = 0.1118): 3.964 ± 0.089 mPa·s
viscosity (323.15 K, 101.3 kPa, x2 = 0.2206): 2.74 ± 0.063 mPa·s
viscosity (323.15 K, 101.3 kPa, x2 = 0.3266): 2 ± 0.047 mPa·s
viscosity (323.15 K, 101.3 kPa, x2 = 0.4301): 1.526 ± 0.036 mPa·s
viscosity (323.15 K, 101.3 kPa, x2 = 0.531): 1.166 ± 0.028 mPa·s
viscosity (323.15 K, 101.3 kPa, x2 = 0.6293): 0.9254 ± 0.023 mPa·s
viscosity (323.15 K, 101.3 kPa, x2 = 0.7252): 0.7473 ± 0.019 mPa·s
viscosity (323.15 K, 101.3 kPa, x2 = 0.8191): 0.6269 ± 0.017 mPa·s
viscosity (323.15 K, 101.3 kPa, x2 = 0.9106): 0.53 ± 0.015 mPa·s

Cc1ccc(O)cc1 + C[N+](C)(C)CCO.[Cl-]
viscosity (293.15 K, 101 kPa, x2 = 0.333): 133.7 ± 3.3 mPa·s
viscosity (298.15 K, 101 kPa, x2 = 0.333): 102 ± 2.4 mPa·s
viscosity (298.15 K, 101.33 kPa, x1 = 0.7): 138.7 ± 52 mPa·s
viscosity (298.15 K, 101.33 kPa, x1 = 0.8): 75.19 ± 22 mPa·s and 55.19 ± 14 mPa·s and 47.26 ± 11 mPa·s
viscosity (298.15 K, 101.33 kPa, x1 = 0.9): 41.11 ± 8.9 mPa·s
viscosity (303.15 K, 101 kPa, x2 = 0.333): 75.5 ± 1.6 mPa·s
viscosity (308.15 K, 101 kPa, x2 = 0.333): 58.57 ± 1.2 mPa·s
viscosity (313.15 K, 101 kPa, x2 = 0.333): 45.82 ± 0.98 mPa·s
viscosity (318.15 K, 101 kPa, x2 = 0.333): 36.17 ± 0.77 mPa·s
viscosity (323.15 K, 101 kPa, x2 = 0.333): 28.83 ± 0.62 mPa·s
